Earlier results as cited in patent publication US20250235488A1, “COMPOSITIONS AND METHODS FOR PROVIDING HEMATOPOIETIC FUNCTION” (Fred Hutchinson Cancer Center, priority 2010, published 2025).

Assays:
[1] = not given; remark: listed apart in the source

plasma half-life, initial phase ([1]; after rapid IV injection) | plasma half-life, terminal phase ([1]; after rapid IV injection) | dose excreted in the urine within 24 hours ([1]; rapid IV, IM, SQ, IT injection or continuous IV infusion) | SMILES | solubility in alcohol | solubility in lipids | solubility in water | CSF concentrations as percentage of concurrent plasma concentrations ([1]; in vivo) | time after which no intact drug is detectable in plasma ([1]; in vivo, iv)
 |  |  | O=NN(CCCl)C(=O)NCCCl [Carmustine] | freely soluble | highly soluble | slightly soluble | 15-70% | 15 min
about 10 minutes | 1 to 3 h | 70-80% | Nc1ccn([C@@H]2O[C@H](CO)[C@@H](O)[C@@H]2O)c(=O)n1 [Cytarabine] |  |  |  |  | 
